The results in this text go back to patent US20240350522A1, “HYGROMYCIN A FOR TREATMENT OF DISEASES AND INFECTIONS” (FLIGHTPATH BIOSCIENCES, INC., priority 2021, published 2024).

What all share (format): cell-based
The test system of assay [1] is Treponema pallidum pallidum SS14 strain. Briefly: T. pallidum susceptibility assay, co-culture with Sf1Ep cells, tp0574 (T47) qPCR after 7 days. The settings on record: penicillin 60 ng/ml, 7 days. (In general: In qPCR the cycle at which signal appears reflects the starting amount.)
Assay [2] concerns Treponema pallidum pallidum Chicago strain. The description is as above. To be noted: penicillin 60 ng/ml, 7 days.
For assay [3] the test system is unchanged. The assay is described as follows: Treated treponemes seeded onto no-antibiotic plate, 7 more days, T47 qPCR (treponemicidal activity).
Assay [4] has as its system Treponema pallidum pallidum SS14 strain. The description is as above.
Where [5] appears, read: pre-treated with penicillin 60 ng/ml, seeded on no antibiotic plate, average.
The mark [6] stands for this setting: pre-treated with penicillin 60 ng/ml, seeded on no antibiotic plate, replicate wells.

Where “and” joins values, the source holds several entries; their conditions need not be identical. Equal entries are not always repeated.

Regarding `CC1(C)S[C@@H]2[C@H](NC(=O)Cc3ccccc3)C(=O)N2[C@H]1C(=O)O` [Pen., penicillin G, reference compound], in assay [1] (average of 8 replicates), the “Mean T47 copies/μL, Average” value amounted to 216 copies/μL. Besides, the “Mean T47 copies/μL, experimental values” is 189 copies/μL and 200 copies/μL and 166 copies/μL and 282 copies/μL and 184 copies/μL and 223 copies/μL and 214 copies/μL and 271 copies/μL in assay [1] (replicate wells); 294 copies/μL and 226 copies/μL and 304 copies/μL and 137 copies/μL and 328 copies/μL and 261 copies/μL and 222 copies/μL and 241 copies/μL in assay [2] (replicate wells). The “Mean T47 copies/μL, Avg.” value in assay [2] (average of 8 replicates) worked out at 252 copies/μL; in assay [3] (setting [5]), 26 copies/μL; in assay [4] (setting [5]), 18 copies/μL. Further, the “treponemicidal activity in words” value is recorded as “treponemicidal” in assay [3] (Chicago strain, 60 ng/ml) and “treponemicidal” in assay [4] (SS14 strain, 60 ng/ml). The “Mean T47 copies/μL, Expt. values” is 12 copies/μL (2×) and 41 copies/μL and 74 copies/μL and 22 copies/μL (2×) and 15 copies/μL and 11 copies/μL in assay [3] (setting [6]); 21 copies/μL (2×) and 17 copies/μL and 24 copies/μL and 10 copies/μL and 13 copies/μL and 27 copies/μL and 15 copies/μL in assay [4] (setting [6]).
